According to ChEMBL document CHEMBL1201862, “PubChem BioAssay data set” (2004):
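Cultured in 96-well plates, cells were exposed to test compound for 48 hours across five concentrations. The concentration for 50% growth inhibition is given as GI50.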 Calls of active or inactive are those of the source. No stated cut-off is given here; in the data, active = GI50 up to about 1.1 µM and inactive = higher.

Key:
Assay in all cases: growth of human tumour cells (NCI), 48 h
[1] = tested on: SF-268
[2] = tested on: A498
[3] = tested on: SN12C
[4] = tested on: HCT-15
[5] = tested on: RXF 393
[6] = tested on: Malme-3M
[7] = tested on: UO-31
[8] = tested on: CAKI-1
[9] = tested on: HCT-116
[10] = tested on: U-251
[11] = tested on: NCI-H226
[12] = tested on: OVCAR-4
[13] = tested on: EKVX
[14] = tested on: NCI-H23
[15] = tested on: NCI-H460
[16] = tested on: MOLT-4
[17] = tested on: HCC 2998

SMILES | GI50 [1] | GI50 [2] | GI50 [3] | GI50 [4] [µM] | GI50 [5] | GI50 [6] | GI50 [7] | GI50 [8] | GI50 [9] | GI50 [10] | GI50 [11] | GI50 [12] | GI50 [13] | GI50 [14] | GI50 [15] | GI50 [16] | GI50 [17]
CC(=O)Nc1ccc(C(=O)NN2C(=O)C(Cl)C2c2ccccc2O)cc1 (stereo not drawn) | 84.7 µM (inactive) | > 100 µM (inactive) | > 100 µM (inactive) | 3.36 | 24.1 µM (inactive) | 82.2 µM (inactive) | 34.4 µM (inactive) | > 100 µM (inactive) | > 100 µM (inactive) | 15.8 µM (inactive) | > 100 µM (inactive) | > 100 µM (inactive) | 99.8 µM (inactive) | 19.7 µM (inactive) | 6.81 µM (inactive) | – | –
CCN1CCC(O)(c2ccc(Cl)c(Cl)c2)C(C(=O)c2ccc(Cl)c(Cl)c2)C1 (stereo not drawn) | 18.2 µM (inactive) | 21.5 µM (inactive) | 17.8 µM (inactive) | 18.8 | – | 18.2 µM (inactive) | 17.3 µM (inactive) | 18.3 µM (inactive) | 18.5 µM (inactive) | 18 µM (inactive) | 21.4 µM (inactive) | 18.3 µM (inactive) | 18.5 µM (inactive) | 19.7 µM (inactive) | 21.3 µM (inactive) | 15.1 µM (inactive) | 19.9 µM (inactive)
CN(C)CCNC(=O)c1ccc(Cl)c2c(Nc3ccc(S(N)(=O)=O)cc3)c3ccccc3nc12 | 1.41 µM (inactive) | 2.72 µM (inactive) | 1.12 µM (active) | 2.84 | – | 3.46 µM (inactive) | 2.38 µM (inactive) | 4.54 µM (inactive) | 0.29 µM (active) | 2.16 µM (inactive) | 1.45 µM (inactive) | 1.93 µM (inactive) | 5.62 µM (inactive) | 2.97 µM (inactive) | 0.706 µM (active) | 0.198 µM (active) | 3.03 µM (inactive)
CCOC(=O)/C(=C/c1cccc(C#N)c1)N(CC)CC | > 100 µM (inactive) | > 100 µM (inactive) | > 100 µM (inactive) | > 100 | – | > 100 µM (inactive) | > 100 µM (inactive) | > 100 µM (inactive) | > 100 µM (inactive) | > 100 µM (inactive) | > 100 µM (inactive) | > 100 µM (inactive) | > 100 µM (inactive) | > 100 µM (inactive) | > 100 µM (inactive) | > 100 µM (inactive) | > 100 µM (inactive)
N=C1NC2(O)C(=O)c3ccccc3C2(O)N1 (stereo not drawn) | > 100 µM (inactive) | > 100 µM (inactive) | > 100 µM (inactive) | > 100 | > 100 µM (inactive) | > 100 µM (inactive) | – | > 100 µM (inactive) | > 100 µM (inactive) | > 100 µM (inactive) | > 100 µM (inactive) | > 100 µM (inactive) | > 100 µM (inactive) | > 100 µM (inactive) | > 100 µM (inactive) | > 100 µM (inactive) | –
C=CCC(O)c1cc(OC)ccc1OC (stereo not drawn) | > 100 µM (inactive) | – | > 100 µM (inactive) | > 100 | > 100 µM (inactive) | > 100 µM (inactive) | > 100 µM (inactive) | > 100 µM (inactive) | – | > 100 µM (inactive) | > 100 µM (inactive) | > 100 µM (inactive) | > 100 µM (inactive) | – | > 100 µM (inactive) | > 10 µM (inactive) | > 100 µM (inactive)
COc1cc(C(=O)C/C(CCC(=O)Nc2ccc(Cl)cc2Cl)=N/Nc2nnc(C)n2N)ccc1O | > 100 µM (inactive) | 92.7 µM (inactive) | > 100 µM (inactive) | > 100 | > 100 µM (inactive) | > 100 µM (inactive) | > 100 µM (inactive) | 45.9 µM (inactive) | > 100 µM (inactive) | > 100 µM (inactive) | > 100 µM (inactive) | – | 67.1 µM (inactive) | > 100 µM (inactive) | > 100 µM (inactive) | – | > 100 µM (inactive)
N#C/C(=C1\OC(=N)C(c2ccc(Cl)cc2Cl)C1=O)c1ccc(Cl)cc1Cl (stereo not drawn) | > 100 µM (inactive) | > 100 µM (inactive) | > 100 µM (inactive) | > 100 | > 100 µM (inactive) | > 100 µM (inactive) | 56.6 µM (inactive) | > 100 µM (inactive) | > 100 µM (inactive) | – | > 100 µM (inactive) | > 100 µM (inactive) | 24.2 µM (inactive) | > 100 µM (inactive) | – | > 100 µM (inactive) | –
c1ccc(CN2CCCCC(Sc3ccccc3)CC2)cc1 (stereo not drawn) | > 100 µM (inactive) | > 100 µM (inactive) | 24.7 µM (inactive) | 17.6 | – | 19.1 µM (inactive) | 15.3 µM (inactive) | 26.9 µM (inactive) | 27.2 µM (inactive) | 15.9 µM (inactive) | 32.1 µM (inactive) | 46.7 µM (inactive) | 35.2 µM (inactive) | 30.1 µM (inactive) | 20.2 µM (inactive) | 20.8 µM (inactive) | 16 µM (inactive)
C[C@]12CC(C#N)C(=O)C(O)=C1CC[C@@H]1C2CC[C@@]2(C)C1CC[C@@H]2O (stereo partly drawn) | 41.7 µM (inactive) | 3.86 µM (inactive) | 60 µM (inactive) | 48.6 | 19.1 µM (inactive) | 31.1 µM (inactive) | 10.1 µM (inactive) | – | 41.1 µM (inactive) | > 100 µM (inactive) | 27.6 µM (inactive) | 48.5 µM (inactive) | 34.8 µM (inactive) | 35.6 µM (inactive) | 41.8 µM (inactive) | 40.7 µM (inactive) | > 100 µM (inactive)
CCOc1ccc(/C=C2/C(=O)N=C(N)N=C2N)cc1OCC | – | – | > 100 µM (inactive) | > 100 | > 100 µM (inactive) | > 100 µM (inactive) | > 100 µM (inactive) | > 100 µM (inactive) | > 100 µM (inactive) | > 100 µM (inactive) | > 100 µM (inactive) | > 100 µM (inactive) | > 100 µM (inactive) | > 100 µM (inactive) | > 100 µM (inactive) | > 100 µM (inactive) | > 100 µM (inactive)
CN(C)P(=O)(/C(N)=N/Nc1ccc([N+](=O)[O-])cc1)N(C)C | > 100 µM (inactive) | 0.558 µM (active) | > 100 µM (inactive) | > 100 | – | > 100 µM (inactive) | > 100 µM (inactive) | > 100 µM (inactive) | > 100 µM (inactive) | > 100 µM (inactive) | > 100 µM (inactive) | 85.1 µM (inactive) | > 100 µM (inactive) | 62.4 µM (inactive) | > 100 µM (inactive) | > 100 µM (inactive) | > 100 µM (inactive)
N#CC(C(=O)/C(=N/N)C(C#N)c1ccccc1)c1ccccc1 (stereo not drawn) | > 100 µM (inactive) | – | > 100 µM (inactive) | > 100 | > 100 µM (inactive) | > 100 µM (inactive) | > 100 µM (inactive) | > 100 µM (inactive) | > 100 µM (inactive) | > 100 µM (inactive) | > 100 µM (inactive) | > 100 µM (inactive) | > 100 µM (inactive) | > 100 µM (inactive) | > 100 µM (inactive) | > 100 µM (inactive) | > 100 µM (inactive)
c1cncc(C2c3[nH]c4ccccc4c3CCN2CCN2CCCCC2)c1 (stereo not drawn) | > 100 µM (inactive) | 70.8 µM (inactive) | > 100 µM (inactive) | > 100 | – | – | 38.3 µM (inactive) | > 100 µM (inactive) | > 100 µM (inactive) | > 100 µM (inactive) | – | > 100 µM (inactive) | > 100 µM (inactive) | > 100 µM (inactive) | > 100 µM (inactive) | > 100 µM (inactive) | > 100 µM (inactive)
O=C1c2ccccc2C(=O)C2C3c4ccccc4C(c4ccccc43)C12 (stereo not drawn) | 13.4 µM (inactive) | – | 23.9 µM (inactive) | 39 | 7.8 µM (inactive) | 13.1 µM (inactive) | 21.8 µM (inactive) | – | 28.8 µM (inactive) | 31 µM (inactive) | 77.3 µM (inactive) | – | 14.7 µM (inactive) | 41.7 µM (inactive) | 50.2 µM (inactive) | 12.7 µM (inactive) | 36.3 µM (inactive)
CCOC(=O)C(C(=O)OCC)S(C)(=O)=O | – | > 100 µM (inactive) | > 100 µM (inactive) | – | > 100 µM (inactive) | > 100 µM (inactive) | > 100 µM (inactive) | – | > 100 µM (inactive) | > 100 µM (inactive) | > 100 µM (inactive) | > 100 µM (inactive) | > 100 µM (inactive) | > 100 µM (inactive) | > 100 µM (inactive) | > 100 µM (inactive) | > 100 µM (inactive)
COC(=O)c1cc2cc(OC)c(OC)cc2cc(C(=O)OC)c1=O | > 100 µM (inactive) | > 100 µM (inactive) | > 100 µM (inactive) | > 100 | > 100 µM (inactive) | > 100 µM (inactive) | > 100 µM (inactive) | > 100 µM (inactive) | > 100 µM (inactive) | > 100 µM (inactive) | – | > 100 µM (inactive) | > 100 µM (inactive) | > 100 µM (inactive) | > 100 µM (inactive) | > 100 µM (inactive) | > 100 µM (inactive)
O=c1[nH][nH]c(=O)[nH]1 | > 100 µM (inactive) | – | – | > 100 | > 100 µM (inactive) | > 100 µM (inactive) | > 100 µM (inactive) | > 100 µM (inactive) | > 100 µM (inactive) | > 100 µM (inactive) | > 100 µM (inactive) | > 100 µM (inactive) | > 100 µM (inactive) | > 100 µM (inactive) | > 100 µM (inactive) | > 100 µM (inactive) | > 100 µM (inactive)
